Measurements published in patent US12419890B2, “Administration of sumo-activating enzyme inhibitor and checkpoint inhibitors” (Takeda Pharmaceutical Company Limited, priority 2019, dated 2025).

Key:
[1] = tested on: MC38 syngeneic mouse colon adenocarcinoma-derived subcutaneous tumor; test: MC38 Study 8: mouse MC38 syngeneic tumor model, individual tumor volume; assay type: in vivo; conditions: BIWx3 till Day 17
Description: MC38 Study 8: MC38 is a mouse colon adenocarcinoma cell line. MC38 mouse syngeneic tumor model was generated by subcutaneous inoculation with 1.0×10^6 MC38 cells (cell suspension) in 11 weeks old female C57BL/6 mice (SINO-British SIPPR/BK Lab Animal Ltd., Shanghai, China) in the flank. When the mean tumor volume reached approximately 60 mm^3, the animals were randomized into one vehicle control and five treatment groups (n=8/group). Mice were then dosed with 20% HPbCD or Compound I-263a or anti-mouse PD-1 antibody over a 21-day period. Tumor growth and body weight were measured twice per week during the treatment and post-treatment periods, and mice were humanely euthanized once they had reached their humane endpoint.
Study 8: A 0.75 mg/mL stock solution of Compound I-263a was formulated weekly in 20% HPβCD and administered intravenously (IV) based on exact animal body weight on each day of treatment, using a dosing volume of 10 mL/kg body weight. Final doses received were 7.5 mg/kg. Dosing volume for Compound I-263a was 0.2 mL. […]
Tumors were measured twice weekly using vernier calipers. Tumor volumes were calculated using standard equation: V=W^2×L/2, where V=volume, W=width, and L=length for the tumor. […] Tumor size and body weight were measured twice a week for the duration of the study. […]

[2] = tested on: SUMO-activating enzyme and SUMOylation; test: inhibition of SUMO-activating enzyme and SUMOylation in cultured tumor cell lines; assay type: cell-based; conditions: cultured mouse and human tumor cell lines
Description: SAE inhibitors, as disclosed herein, are described, for example, in US 2016/0009744 and U.S. Pat. No. 9,695,154. They may be prepared by methods known to one skilled in the art and/or according to the methods described in US 2016/0009744 and U.S. Pat. No. 9,695,154, which is hereby incorporated by reference in its entirety. Central to the mechanism of action of useful SAE inhibitors, such as Compound I-263a, in combinations and methods of the present disclosure is production of type 1 IFNs and induction of an innate immune response with activation of dendritic cells, natural killer (NK) cells and macrophages.

## Cc1sc(C(=O)c2cncnc2N[C@@H]2C[C@H](COS(N)(=O)=O)[C@@H](O)C2)cc1[C@@H]1NCCc2ccc(Cl)cc21 [Compound I-263a, [(1R,2S,4R)-4-{[5-({4-[(1R)-7-chloro-1,2,3,4-tetrahydroisoquinolin-1-yl]-5-methyl-2-thienyl}carbonyl)pyrimidin-4-yl]amino}-2-hydroxycyclopentyl]methyl sulfamate]
[1]; delay day 11-14, Compound I-263a 7.5 mg/kg IV or anti-mPD-1 10 mg/kg IP
  tumors with tumor growth delay: 1
[1]; delay from day 7-18, 8 implanted tumors, Compound I-263a 7.5 mg/kg IV alone or plus anti-mPD-1 10 mg/kg IP
  tumors with tumor growth delay: 2
[2]
  inhibition of SUMO-activating enzyme and SUMOylation: Selective and potent inhibition
